Here are results for 91 compounds from a melting point compilation (Tetko et al.; mined from patent text by program, amines drawn as free bases though some values may be those of a salt).

As to `Cc1nn(C)c2nc(-c3ccccc3)cc(N(C)C)c12`, the melting point (usually the temperature of the solid-liquid transition) fell in the range of 90 to 91 °C. `CCc1oc2ccc(C)cc2c1C(=O)c1ccc(Cl)c(S(N)(=O)=O)c1` yielded a melting point of 147 to 150 °C. Then `COc1ccc([C@@H]2[C@@H](CCCBr)C(=O)N2c2ccc(OC)cc2)cc1`, with 70 to 73 °C. With `CCOc1ccc([N+](=O)[O-])cc1OC`, the melting point was 88 to 90 °C. With `COc1nc(N2CCCCC2)nc(OC)c1O` the figure was 109 °C. `CN1C(=O)NC(Cc2c[nH]c3ccccc23)C1=O` (stereo unspecified) showed a melting point of 207 to 210 °C. Then `Cc1cc(-c2cccc(NC(=O)N[C@@H]3c4cc(C#N)ccc4OC(C)(C)[C@H]3O)c2)nn1C`, with 120 to 130 °C. With `Nc1nc2cccnc2c2c1nc(CO)n2CC1(O)CCOCC1`, the melting point was > 250 °C. With `COc1cc(-c2ccc(C(C)C)cc2)c(C)c2oc(=O)c(C)c(C)c12` the figure was 172 °C. Then `COc1cc(C=Cc2ccc(Cl)cc2)ccc1O`, with 121 to 124 °C; and `CC(=O)c1c(C)[nH]c(CC(C)(C)C)c1C`, with 156 to 163 °C; and `O=c1[nH]c2ccccc2c2nc(-c3ccco3)nn12`, with 338 to 343 °C.

Compound `COCc1cc(-n2cc(-c3ccc(-c4ccco4)cc3)c(C(F)(F)F)n2)ccc1S(C)(=O)=O` gave a melting point of 142 to 143 °C. With `CCCCc1nn2c(c1Cc1ccc(-c3ccccc3)c(C(=O)O)c1)CCCC2` the figure was 162 °C; with `N#CCC(=O)NCc1ccc(Cl)nc1`, 119 °C. Then `CNCc1cc(C(=O)c2cccs2)cc(C(C)(C)C)c1O`, with 128 to 129 °C; and `O=C(O)c1ccc(OCCCO/N=C/c2cc(C(F)(F)F)cc(C(F)(F)F)c2)cc1O`, with 182 to 183 °C. With `CCCCC1(N(C)C)CCC(c2[nH]c3ccccc3c2C)(c2[nH]c3ccccc3c2CCNC(=O)Nc2ccccc2)CC1` (stereo unspecified) the figure was 115 to 120 °C; with `NNc1cc(=O)[nH]c(N)n1`, 314 to 315 °C. Consider `COc1cc(C(O)C#Cc2cnc(N)nc2N)cc(OC)c1OC` (stereo unspecified), for which the melting point lay within 203 to 205 °C. `Cn1cc(S(C)=O)c(=O)c2sc(-c3ccccc3Cl)cc21` (stereo unspecified): the melting point was in the range of 167 to 169 °C. The compound `CCOC(=O)CCN(CNC(=O)OC(C)(C)C)C(=O)Cn1cc(C)c(=O)[nH]c1=O` had a melting point of 174 to 175 °C. Then `Cc1noc(-c2ncn3c2CN(C)C(=O)c2ccccc2-3)n1`, with 257 to 260 °C; and `CN(C)c1cccc(Oc2ccccc2N2CCN(CCCc3c[nH]c4ccccc34)CC2)c1`, with 156 to 162 °C.

`Cc1cc(N2CCOCC2)c2cccc(OCc3c(Cl)ccc(-n4cccc4CNC(=O)C=Cc4ccc(C(=O)O)cc4)c3Cl)c2n1` registered a melting point of 174 to 180 °C. In the case of `N#CC(=C1CCCCCN1)c1ccccc1`, the melting point is 108 to 113 °C.

In turn, `CC1CCC(C(C)C)C(C(C#Cc2ccc(Cc3ccc(F)cc3)o2)N(O)C(N)=O)C1` (stereo unspecified) had a melting point of 154 to 156 °C.

In turn, `CC(C=CO)c1ccc(-c2ccc(Cl)cc2)cc1` (stereo unspecified) gave a melting point of 130 to 132 °C. In turn, `CCN(CCCc1ccccc1)[C@H]1CC[C@H](c2ccc(O)cc2)CC1` gave a melting point of 163 to 166 °C. Regarding `CC1CS(=O)C(c2cccs2)=NO1` (stereo unspecified), the melting point is 114 to 115 °C. `COC(=O)c1ccc(CNC(=O)OCc2ccccc2)cc1OCc1ccccc1` gave a melting point of 106 to 107 °C. Then `CCCCCCCCc1nc2c(N)nc3ccccc3c2n1CCOCC#Cc1ccccc1`, with 138 to 139 °C; and `Cc1cc(C)n2nc(SCc3ccccc3)nc2c1`, with 69 to 70 °C. The compound `O=C(Nc1cccc(Cc2nnn[nH]2)c1)C(F)(F)C(F)(F)C(F)(F)C(F)(F)C(F)(F)C(F)(F)C(F)(F)F` came in with a melting point of 163 to 166 °C. On to `CCOCc1nc2c(N)nc(C)c(C)c2n1NCCCNC(=O)NC(C)C`, for which the melting point fell in the range of 203 to 205 °C. Compound `CC(=O)NC[C@H]1CN(c2ccc(N3CCN(C(=O)CCC(=O)c4ccc(Br)cc4)CC3)c(F)c2)C(=O)O1` yielded a melting point of 197 to 198 °C. For the compound `C#Cc1cn(C)c2cc(-c3ccccc3Cl)c3c(c12)C(=O)NC3=O`, the melting point lay within 125 to 129 °C.

On to `Cc1nn(C)c2c1nc(O)c1c(C(=O)O)cnn12`, for which the melting point was > 300 °C.

`O=CN1CCC2=C(CCCC2)C1Cc1ccc(O)cc1` (stereo unspecified): the melting point was in the range of 154 to 156 °C.

With `C=CCNc1nc(NCC=C)nc(N2CCN(C(=O)n3ccnc3)CC2)n1`, the melting point is 78 to 82 °C. For the compound `O=C1CCCc2cc(F)cc(F)c21`, the melting point was 57 to 58 °C.

With `CCCCNc1cc(C(=O)O)cc(S(N)(=O)=O)c1Nc1ccccc1`, the melting point fell in the range of 230 to 231 °C. On to `Cc1ccc(S(=O)(=O)NC(=O)c2cccc(OCc3csc(-c4ccccc4)n3)c2)cc1`, for which the melting point is 170 to 172 °C. With `Cc1cc(Cl)cc(Cl)c1CNc1c(NC(C)(C)C)c(=O)c1=O` the figure was 264 to 268 °C.

Compound `Nc1nc(N)c2c(n1)CCC(Cc1ccccc1Cl)C2` (stereo unspecified) showed a melting point of 134 °C. `NC(=NCC(F)(F)F)Nc1ccnc(SCCCNC(=O)c2ccco2)n1` showed a melting point of 127 to 129 °C.

Take `COc1cc(OC)cc(C2(O)C(=O)Nc3ccc(Cl)cc32)c1` (stereo unspecified): the melting point was 191 °C. With `NC(=O)c1cscc1Br` the figure was 108 to 110 °C. In turn, `CCN(CC)C(=O)c1c(O)c(=O)cc(C)n1C` gave a melting point of 128 to 130 °C. In turn, `O=[N+]([O-])c1ccc(C2CCc3c(CCCCCCO)n[nH]c3C2)cc1` (stereo unspecified) gave a melting point of 69 to 70 °C. With `CCOC(=O)c1c(CN(C)O)nc2sc3c(c2c1-c1ccc(OC)c(OC)c1)CCN(C(=O)c1ccccc1)C3` the figure was 129 to 130 °C. Then `Cc1ccc([N+](=O)[O-])cc1/C=C/c1nc(C(C)C)cs1`, with 87 to 88 °C; and `NS(=O)(=O)c1nc2ccc(OC(=O)Cc3ccccc3)cc2s1`, with 177 to 179 °C; and `C[N+]([O-])=C(Cn1cncn1)c1ccc(Cl)cc1`, with 119 to 121 °C. With `CNC(=NC#N)NCCSCc1csc(NC(=S)NCC(F)(F)F)n1` the figure was 157 to 158 °C; with `CCCOCCCCOCCCCCCNCC(O)c1cc(Cl)c(N)c(Cl)c1` (stereo unspecified), 51 to 53 °C. In turn, `O=C(O)CCCNC(=O)COc1ccccc1` showed a melting point of 91 to 94 °C.

As for `O=[N+]([O-])c1ccc(O)c(-c2ccsc2)c1`, the melting point came out at 130 °C. Then `O=C(O)Cn1cc(Cc2nc3c(F)c(F)cc(F)c3s2)c2cccc(Br)c21`, with 228 to 230 °C. As for `OCc1cc(-c2cnn3c(C(F)(F)F)cc(-c4ccc(Cl)c(Cl)c4)nc23)ccn1`, the melting point was 233 °C. Then `O=C(O)c1c(-c2ccc(Cl)c(Cl)c2)csc1N1C(=O)c2ccccc2C1=O`, with 198 to 199 °C; and `NC(=O)CCCCCN1CCN(c2csc3cc(F)ccc23)CC1`, with 141 to 142 °C; and `CC(C)(Oc1ccc(NC(=O)Nc2cc(Cl)cc(Cl)c2)cc1)C(=O)O`, with 182 to 184 °C. With `CCCCCc1ccc(-c2ncc(-c3ccc(O)cc3)cn2)cc1`, the melting point lay in the range of 152 to 153 °C. Take `Cc1ccc(S(=O)(=O)NC(=O)Nc2nc(-c3ccccc3)c(-c3ccc(=O)n(C(C)C)n3)s2)cc1`: the melting point was 172 to 174 °C. With `Oc1ccc2cc(-c3nc4cc(O)ccc4o3)ccc2c1` the figure was 288 to 290 °C; with `Cc1cc(NC2=NN(c3ccccc3)CC2)cc(C)c1O`, 154 to 158 °C.

In the case of `COc1ccc2c(c1)C(O)(CCNC(C)=O)CCC2` (stereo unspecified), the melting point is 106 to 109 °C. The compound `O=[N+]([O-])c1cccc(-c2coc3ccccc23)c1` had a melting point of 86 to 86.5 °C. In turn, `O=C(NCCCCN1CCC(c2ccccc2)CC1)c1ccc2ccccc2c1` returned a melting point of 143 to 144 °C. Then `CC(=O)Nc1ccc(S(=O)(=O)CCCCNS(=O)(=O)c2ccc(C)cc2)cc1`, with 93 to 95 °C; and `CCOC(=O)/C=C/c1cn(Cc2ccc(Oc3ccccc3)cc2)nc1OCc1nc(-c2ccccc2)oc1C`, with 93 to 94 °C; and `C#CCn1c(C(F)(F)F)nc2cc(F)c(-n3c(=O)cc(C(F)(F)F)n(C)c3=O)cc21`, with 104 to 105 °C. With `O=C1CCCc2cc(-c3ccccc3)ccc21` the figure was 99 to 100 °C; with `c1ccc2c(c1)-c1cccc3c(NCCCCNc4nccc5ccccc45)nnc-2c13`, 95 to 105 °C; with `Cc1nnc2n1-c1ccc(Br)cc1C(c1ccccn1)=NC2`, 248 to 250 °C.

The compound `CCCOc1ccc(OC)cc1C1=NC(=O)C2=NC=NC2=N1` showed a melting point of 233 to 234 °C.

As to `COC(=O)c1ccc(COc2cccc(-c3c(C(=O)c4ccccc4)cnc4c(C(F)(F)F)cccc34)c2)c(OC)c1`, the melting point lay within 60 to 63 °C.

Regarding `O=C(O)[C@@H]1CCCN1Cc1cc2cc3c(cc2c2cc(O)ccc12)OCO3`, the melting point lay in the range of 205 to 206 °C. On to `COC(C)CCOc1c(-c2ccc(S(C)(=O)=O)cc2)cnn(-c2ccc(F)c(F)c2)c1=O` (stereo unspecified), for which the melting point fell in the range of 99 to 101 °C. `CCC(=O)N(Cc1cnc(Cl)s1)C(=N[N+](=O)[O-])NC` returned a melting point of 89 to 90 °C. Consider `Fc1cccc(CCc2nnc(-c3ccnc4[nH]ccc34)o2)c1`, for which the melting point fell in the range of 147 to 148 °C. Then `CCCCCCCCCCCCNc1ccnc(Cl)n1`, with 80 to 82 °C; and `CCOC(=O)C1=C(C(=O)OCC)C(c2cccc([N+](=O)[O-])c2)C(C(=O)OCC)=C(CC)N1` (stereo unspecified), with 153 °C. Then `O=C(O)C=C1SC(Nc2c(Cl)cccc2Cl)=NC1=O`, with > 230 °C.

Consider `CC(C)(C)OC(=O)N1CCN(c2ccc(OC[C@H]3CCn4cc([N+](=O)[O-])nc4O3)cc2)CC1`, for which the melting point lay in the range of 207 to 208 °C.

`O=C1NCCn2c1cc1ccccc12` registered a melting point of 228 to 230 °C. Compound `Cc1ccc(N)cc1Nc1nccc(-c2ccc(Cl)nc2)n1` had a melting point of 117 to 118 °C. On to `COc1ccc(Cc2ccc(C(=O)O)nc2)cc1`, for which the melting point was 145 to 147 °C.

As for `CC(=O)Nc1ccc(C(C)=O)c(C)n1`, the melting point fell in the range of 201 to 202 °C. For `CC(=O)Nc1nc(-c2ccc(SCOC(C)=O)cc2)cs1`, the melting point lay in the range of 144 to 145 °C.
